Source: patent US9849125B1, “Anti-overingestion dosage forms” (BANNER LIFE SCIENCES LLC, priority 2015, dated 2017)

Assay: In vitro dissolution of multiple capsules together in 0.1 N HCl (USP Apparatus II)
Type: physicochemical
Description: To test the anti-over ingestion properties of the pharmaceutical composition, multiple capsules were combined in a single reaction vessel and percentage of API released was measured. […] The in vitro dissolutions studies of dextromethorphan from Amberlite™ IRP69 from multiple capsules (1, 5, and 10) were carried out in 0.1 HCl with each 200 mg capsule containing 40 mg of the drug.
An additional experiment was performed to support the concept that the ceiling effect was not caused by solubility/sink limitation, but rather by retention by sequestering.
Next, the possibility to gain the same sequestering effect using physical blend of drug with resin instead of drug resinate complex was explored.

Compound: COc1ccc2c(c1)[C@]13CCCC[C@@H]1[C@H](C2)N(C)CC3 [dextromethorphan]
- release from 1 capsule (40 mg) vs 10 capsules (400 mg) without resin: dose proportional release
